Key:
3T3 cells = assay: Colorimetric cell adhesion assay, 3T3; assay type: cell-based, mouse; settings: 3T3 cells on PLL; 4 hr incubation; FIG. 7
Procedure: Cell lines. Murine 3T3 fibroblast (NIH), rat C6 glioma (Paganetti et al., 1988, J. Cell Biol. 107:2281) and MCG-28 young immortalized mouse astrocyte (a murine neonatal astrocyte line immortalized with SV-40) were grown in medium composed of Dulbecco's modified Eagle medium (DMEM), 10% fetal calf serum (Gibco Laboratories), and penicillin G/streptomycin (100 units/ml, 100 μg/ml respectively, Gibco Laboratories). For the stripe assay, confluent plates were disaggregated with 0.05% trypsin, 0.53 mM EDTA (Gibco Laboratories) and seeded at 200,000 cells/ml (3 ml/plate). For the cell adhesion assays, confluent cultures were disaggregated with 0.03% EDTA and plated in a 96-well microtiter plate at 20,000-100,000 cells per well. PC12 cells, a pheochromocytoma cell line (Green L. A. & Tischler A. S., 1976, Proc. Natl. Acad. Sci. U.S.A. 73:2424), were grown in medium containing Roswell Park Memorial Institute (RPMI) medium 1640 (Gibco Laboratories), 10% horse serum, 5% fetal calf serum (FCS), and penicillin G/streptomycin (100 units/ml, 100 μg/ml respectively, Gibco Laboratories). The cells were disaggregated with 0.03% EDTA and plated in a 96-well microtiter plate at 3,000 cells per well.
Microtiter plates were precoated with poly-L-lysine and blocked with 1% BSA in DMEM for 20 min prior to addition of cells. The cells were plated on the precoated 96-well plates and test compounds were added to the culture medium. Following 4-24 hr incubation at 36° C., 5% C02, in a humidified incubator, the tetrazolium salt MTT (3-(4,5-dimethylthazol-2-yl)-2,5-diphenyl tetrazolium bromide) was added. The cultures were incubated for 2 hr to allow mitochondrial succinate dehydrogenase, found in viable cells, to […] the MTT to its formazan blue reaction product. The media was aspirated and the wells were rinsed to remove all detached cells. The formazan blue reaction product in attached cells was solubilized with 0.08 N HCl in isopropanol, and the plates were read in a microtiter plate reader (Dynatech MR4000) at 570 nm with a 630 nm reference filter. The resulting optical density readings are directly related to the number of viable cells in the well (Mosmann, T., 1983, J. Immunol. Methods 65:55-63). The samples were run in 3-6 replicates per point and the SD was less than 5%.
The adhesion of fibroblasts to PLL-coated microtiter plates in the presence of test compounds in the culture medium was evaluated using an MTT assay as described in Section 8.1.5., supra, and the number of attached cells was expressed as percent of control. The effect of 4 hr incubation in the presence of heparin, pentosan polysulfate, dextran sulfate, and dextran on adhesion of rat meningeal fibroplasts (RMF) and 3T3 cells to PLL is shown in FIG. 7.

[1] = tested on: DRG explants, neuronal and non-neuronal cell migration; assay: Explant outgrowth assay; assay type: cell-based, chick
Procedure: Primary Explant Cultures. Dorsal root ganglia (DRGs) were obtained from E8-E9 chick embryos. The dissection was carried out in CMF-HBSS. The spinal cord was exposed and DRGs were removed and cleaned from surrounding connective tissue. DRGs were plated in DMEM/F12, 10% fetal calf serum containing 50 ng/ml nerve growth factor (NGF). The DRGs were seeded on laminin (LN, Gibco Laboratories) or poly-L-lysine (PLL, Sigma) coated dishes.
The relative outgrowth, compared to outgrowth of untreated controls, was rated as follows: 1: 0-19% of control; 2: 20-39% of control; 3: 40-59% of control; 4: 60-79% of control; 5: 80-100% of control.
The effect of heparin and dextran sulfate on cell migration from explant cultures of chick DRGs was tested. DRGs were plated in culture dishes precoated with a substratum of either PLL or LN and grown in culture medium containing different concentrations of heparin, dextran sulfate or dextran solutions. In the absence of a test compound, within 24-48 hours a halo of neuritic outgrowth and migrating non-neuronal cells, i.e., fibroblasts and Schwann cells, was evident around the ganglia (FIG. 6A). The size of the cellular halo migrating from the DRG explant was reduced when the explant was grown in the presence of 0.4 mg/ml heparin (FIG. 6B). […] In contrast, 0.4 mg/ml dextran had no effect (FIG. 6D). The size of the cellular halo emanating from DRGs grown in the presence of test compounds was evaluated relative to untreated control and rated as described in Section 8.1.3, supra (Table 9).

[2] = 0.5 μg/ml in culture medium, PLL substratum
[3] = 1 μg/ml in culture medium, PLL substratum
[4] = 1.25 μg/ml in culture medium, LN substratum
[5] = 1.25 μg/ml in culture medium, PLL substratum
[6] = 2 μg/ml in culture medium, PLL substratum
[7] = 10 μg/ml in culture medium, LN substratum
[8] = 10 μg/ml in culture medium, PLL substratum
[9] = 50 μg/ml in culture medium, LN substratum
[10] = 50 μg/ml in culture medium, PLL substratum
[11] = 200 μg/ml in culture medium, LN substratum
[12] = 200 μg/ml in culture medium, PLL substratum
[13] = 400 μg/ml in culture medium, LN substratum
[14] = 400 μg/ml in culture medium, PLL substratum
[15] = 2 μg/ml in culture medium, LN substratum

Heparin
number of attached cells compared to untreated controls (3T3 cells): decreased | Cellular Migration from DRG Explants, rating relative to untreated control [1, 2]: 5 (5 = 80-100% of control) | Cellular Migration from DRG Explants, rating relative to untreated control [1, 3]: 4 (4 = 60-79%) | Cellular Migration from DRG Explants, rating relative to untreated control [1, 4]: 5 (5 = 80-100% of control) | Cellular Migration from DRG Explants, rating relative to untreated control [1, 5]: 2 (2 = 20-39%) | Cellular Migration from DRG Explants, rating relative to untreated control [1, 6]: 2 (2 = 20-39%) | Cellular Migration from DRG Explants, rating relative to untreated control [1, 7]: 5 (5 = 80-100% of control) | Cellular Migration from DRG Explants, rating relative to untreated control [1, 8]: 2 (2 = 20-39%) | Cellular Migration from DRG Explants, rating relative to untreated control [1, 9]: 5 (5 = 80-100% of control) | Cellular Migration from DRG Explants, rating relative to untreated control [1, 10]: 2 (2 = 20-39%) | Cellular Migration from DRG Explants, rating relative to untreated control [1, 11]: 5 (5 = 80-100% of control) | Cellular Migration from DRG Explants, rating relative to untreated control [1, 12]: 2 (2 = 20-39%) | Cellular Migration from DRG Explants, rating relative to untreated control [1, 13]: 5 (5 = 80-100% of control) | Cellular Migration from DRG Explants, rating relative to untreated control [1, 14]: 1 (1 = 0-19%)

dextran [reference compound]
number of attached cells compared to untreated controls (3T3 cells): slight increase | Cellular Migration from DRG Explants, rating relative to untreated control [1, 15]: 5 (5 = 80-100% of control) | Cellular Migration from DRG Explants, rating relative to untreated control [1, 7]: 5 (5 = 80-100% of control) | Cellular Migration from DRG Explants, rating relative to untreated control [1, 9]: 5 (5 = 80-100% of control) | Cellular Migration from DRG Explants, rating relative to untreated control [1, 10]: 5 (5 = 80-100% of control) | Cellular Migration from DRG Explants, rating relative to untreated control [1, 11]: 5 (5 = 80-100% of control) | Cellular Migration from DRG Explants, rating relative to untreated control [1, 12]: 5 (5 = 80-100% of control) | Cellular Migration from DRG Explants, rating relative to untreated control [1, 13]: 5 (5 = 80-100% of control) | Cellular Migration from DRG Explants, rating relative to untreated control [1, 14]: 5 (5 = 80-100% of control)

dextran sulfate
number of attached cells compared to untreated controls (3T3 cells): decreased | Cellular Migration from DRG Explants, rating relative to untreated control [1, 2]: 5 (5 = 80-100% of control) | Cellular Migration from DRG Explants, rating relative to untreated control [1, 3]: 3 (3 = 40-59%) | Cellular Migration from DRG Explants, rating relative to untreated control [1, 4]: 5 (5 = 80-100% of control) | Cellular Migration from DRG Explants, rating relative to untreated control [1, 5]: 2 (2 = 20-39%) | Cellular Migration from DRG Explants, rating relative to untreated control [1, 15]: 3 (3 = 40-59%) | Cellular Migration from DRG Explants, rating relative to untreated control [1, 6]: 1 (1 = 0-19%) | Cellular Migration from DRG Explants, rating relative to untreated control [1, 7]: 1 (1 = 0-19%) | Cellular Migration from DRG Explants, rating relative to untreated control [1, 8]: 1 (1 = 0-19%) | Cellular Migration from DRG Explants, rating relative to untreated control [1, 9]: 1 (1 = 0-19%) | Cellular Migration from DRG Explants, rating relative to untreated control [1, 10]: 1 (1 = 0-19%) | Cellular Migration from DRG Explants, rating relative to untreated control [1, 11]: 1 (1 = 0-19%) | Cellular Migration from DRG Explants, rating relative to untreated control [1, 12]: 1 (1 = 0-19%) | Cellular Migration from DRG Explants, rating relative to untreated control [1, 13]: 1 (1 = 0-19%) | Cellular Migration from DRG Explants, rating relative to untreated control [1, 14]: 1 (1 = 0-19%)

Reference: US6756362B2, “Methods and compositions based on inhibition of cell invasion and fibrosis by anionic polymers” (priority 1991, dated 2004)
